Experimental findings from US20120252791A1, “Heterocyclic GTP Cyclohydrolase 1 Inhibitors For the Treatment of Pain” (priority 2009, published 2012) are described below.

In the assay the target is T1, GCH-1 (Homo sapiens, UniProt P30793).
T1 sequence (P30793 1-250): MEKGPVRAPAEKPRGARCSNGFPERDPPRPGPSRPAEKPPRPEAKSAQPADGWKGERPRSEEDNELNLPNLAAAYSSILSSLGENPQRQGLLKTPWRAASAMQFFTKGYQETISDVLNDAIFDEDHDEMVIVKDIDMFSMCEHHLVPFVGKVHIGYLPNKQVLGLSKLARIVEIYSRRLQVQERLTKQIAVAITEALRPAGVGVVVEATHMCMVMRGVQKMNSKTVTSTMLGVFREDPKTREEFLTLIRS
The assay can be described thus: LC/MS assay monitoring GTP consumption and neopterin formation by GCH-1. It is filed as biochemical. The following applies: 2 μM GCH-1, 120 μM GTP, 1 hour at 37° C. The protocol:
This method is based on transformations known in the art (see, for example, Xie et al., J. Biol. Chem. 273(33):21091-21098, 1998). The LC-MS assay is carried out by the following steps.
(1) GCH-1 reaction • 2 μM GCH-1, 120 μM GTP, 1 hour incubation at 37° C. (2) Termination of GCH-1 reaction by de-phosphorylation • The reaction is stopped by the addition of excess alkaline phosphatase (2 units/sample) • 1 hour incubation at 37° C. (3) Oxidation of 7,8-dihydroneopterin to get a stabile final product • Oxidation with 0.1 M […] for 1 hour at 37° C. resulting in oxidation of 7,8-dihydroneopterin to neopterin • Termination of the oxidation reaction by addition of ascorbic acid
• Sample analysis using highly specific LC/MS methods to detect guanosine and neopterin in parallel • Data analysis and automated CRC fitting to get IC50 values

Where [1] appears, read: Table 8, LC/MS assay, read-out: IC50.

Where two headings read alike, the source gives them in different places.

On to `Nc1nc2[nH]c(S)nc2c(=O)[nH]1` [8-mercaptoguanine, reference compound], for which, where the note is “assay validation with known GCH-1 inhibitors, read-out: IC50 [μM] LC/MS assay”, the IC50 was 5 µM.
In the case of `COCCSc1nc2c(=O)[nH]c(N)nc2[nH]1` [(6)], the IC50 under setting [1] worked out at 25 µM.
As for `Nc1nc2[nH]c(SCC3CCOCC3)nc2c(=O)[nH]1` [(9)], under setting [1], the IC50 stood at 39 µM.
In the case of `Nc1nc2[nH]c(N)nc2c(=O)[nH]1` [(31)], the IC50 under setting [1] was 27 µM.
The same measure, in the same setting: with `CCOc1ccccc1NC(=O)CSc1nc2c(O)nc(N)nc2[nH]1` [(56)] the figure was 40 µM.
For the compound `CCCSc1nc2c(=O)[nH]c(N)nc2[nH]1` [Compound (3)], the IC50 under setting [1] stood at 14 µM.
With `CCCSc1nc2c(=O)[nH]c(N)nc2n1C` [Compound (4)], under setting [1], the IC50 came to 85 µM.
Take `Cn1c(=S)[nH]c2nc(N)[nH]c(=O)c21` [Compound (13)]: the IC50 under setting [1] is 76 µM.
In the case of `COCCn1cnc2c(=O)[nH]c(N)nc21` [Compound (29)], the IC50 under setting [1] is over 400 µM.
With `Nc1nc2[nH]ccc2c(=O)[nH]1` [Compound (37)], the IC50 under setting [1] worked out at 43 µM.
With `Cn1ccc2c(=O)[nH]c(N)nc21` [Compound (38)], the IC50 under setting [1] is 193 µM.
`Cc1cn(C)c2nc(N)[nH]c(=O)c12` [Compound (40)]: under setting [1], the IC50 is over 400 µM.
